Reference: patent publication US10071106B2, “Steroidal nitrones for the treatment and prevention of a cerebral stroke or ischaemia, alzheimer and parkinson disease and amyotrophic lateral sclerosis” (FUNDACIÓN PARA LA INVESTIGACIÓN BIOMÉDICA DEL HOSPITAL …, priority 2013, dated 2018)

Columns and labels:
[1] = tested on: primary neuronal cultures taken from the cerebral cortex of rats; assay: Neuroprotection in primary neuronal cultures exposed to OGD 4 h and 24 h reperfusion (MTT cell viability); assay type: cell-based; conditions: for neuronal viability (versus 100% control): added at beginning of reperfusion, OGD 4 h, R24h
From the text: The neuroprotective power of cholesteronitrones F2 and F3 has been determined in primary neuronal cultures, cultured from 6 to 8 days, taken from the cerebral cortex of rats (Quevedo, C, Salinas, M, Alcázar, A. Initiation factor 2B activity is regulated by protein phosphatase 1, which is activated by the mitogen-activated protein kinase-dependent pathway in insulin-like growth factor 1-stimulated neuronal cells. J. Biol. Chem. 2003, 278, 16579-16586), and subjected to oxygen-glucose deprivation (OGD) (Chioua M, Sucunza D, Soriano E, Hadjipavlou-Litina D, Alcázar A, Ayuso I, Oset-Gasque M J, González M P, Monjas L, Rodríguez-Franco M I, Marco-Contelles J, Samadi A. α-aryl-N-alkyl nitrones, as potential agents for stroke treatment: synthesis, theoretical calculations, antioxidant, anti-inflammatory, neuroprotective, and brain-blood barrier permeability properties. J Med Chem. 2012, 55, 153-168), according to the following protocol:
Cell viability was measured using 3-(4,5-dimethylthiazol-2-yl)-2,5-diphenyl tetrazolium bromide (MTT).
Cholesteronitrones F2 and F3, in a range of concentrations from 0.1 to 100 μM, and from 0.5 to 10 μM, respectively, were added at the beginning of the reperfusion period to evaluate their neuroprotective power, using citicoline, a well-known neuroprotective agent, as a reference compound (Adibhatla, R M, Hatcher, J F, Dempsey, R J. Citicoline: neuroprotective mechanisms in cerebral ischemia. J. Neurochem. 2002, 80, 12-23). Citicoline was tested at variable concentrations, between 1 μM and 1 mM, a neuroprotective effect being found at 10 and 100 μM (87.4 and 88.1%, respectively), the effect of 100 μM being significant compared with the value obtained at R24h (analysis of variance (ANOVA), p<0.0021; and p<0.01, post-Dunnett test].

[2] = tested on: primary neuronal cultures taken from the cerebral cortex of rats; assay: Long-term neuroprotection in neuronal cultures exposed to OGD 4 h and reperfusion for 5 d (R5d), MTT; assay type: cell-based
Method: To evaluate the neuroprotective power of cholesteronitrones F2 and F3 against ischaemic damage in cultured neurons and simulate long-term reperfusion conditions, the cultures were exposed to OGD for 4 h, and the cells were then subjected to reperfusion for 5 d (R5d).
Cholesteronitrones F2 and F3 (at concentrations of 1.0 and 5.0 μM) were added at the beginning of the reperfusion period and after 48 h of reperfusion, to thus evaluate their long-term neuroprotective power, again using the reference molecule citicoline, according to the protocol of the MTT (see above).

[3] = tested on: global ischaemia in adult rats; assay: Global ischaemia by four-vessel occlusion, neuronal death by Fluoro-Jade B after 5 d reperfusion; assay type: in vivo; conditions: R5d, 0.1 mg/kg intraperitoneally
From the text: (§1) Global ischaemia was induced in adult rats according to the conventional four-vessel occlusion method [(a) Martín de la Vega C, Burda J, Nemethova M, Quevedo C, Alcázar A, Martín M E, Salinas M. Possible mechanisms involved in the down-regulation of translation during transient global ischaemia in the rat brain. Biochem J 2001, 357, 819-826; (b) García-Bonilla L, Cid C, Alcázar A, Burda J, Ayuso I, Salinas M. Regulation proteins of eukaryotic initiation factor 2-alpha subunit (eIF2a) phosphatase, under ischemic reperfusion and tolerance. J Neurochem 2007, 103, 1368-1380; (c) Ayuso M I, Hernández-Jiménez M, Martín M E, Salinas M, Alcázar A. New hierarchical phosphorylation pathway of the translational repressor eIF4E-binding protein 1 (4E-BP1) in ischemia-reperfusion stress. J Biol Chem 2010, 285, 34355-34363].
(§2) Therefore, the two vertebral arteries were completely cauterized, and after 24 h ischaemia is induced by carotid occlusion by means of small clamps for 15 min; the clamps were then removed and reperfusion was performed. After 5 d (R5d), the animals were sacrificed. The animals were treated with cholesteronitrone F2, diluted in 10% ethanol in saline solution as a carrier, administered intraperitoneally from the beginning of the reperfusion period. Ten animals were tested; one of the five animals treated with carrier died 2 d after reperfusion. All the protocols used in the experiments with animals were performed according to the guidelines approved by the Ethics Committee of Hospital Ramón y Cajal (Madrid). In the model of four-vessel occlusion cerebral ischaemia in rats, after a brief period of ischaemia delayed neurodegeneration is produced in the CA1 region of the hippocampus [(a) Kirino T. Delayed neuronal death. Neuropathology 2000, 20, S95-S97; (b) Pulsinelli W A, Brierley J B, Plum F. Temporal profile of neuronal damage in a model of transient forebrain ischaemia. […]

[4] = tested on: global ischaemia in adult rats; assay: Global ischaemia by four-vessel occlusion, apoptosis by TUNEL method after 5 d reperfusion; assay type: in vivo; conditions: R5d
From the text: as §1, §2

[5] = 1 μM, added at the beginning of reperfusion
[6] = 5 μM, added at the beginning of reperfusion

Question: With CC(C)CCC[C@@H](C)[C@H]1CC[C@H]2[C@@H]3CCC4=C/C(=[N+](\C)[O-])CC[C@]4(C)[C@H]3CC[C@]12C [cholesteronitrone F2, (E)-N-((8S,9S,10R,13R,14S,17R)-10,13-dimethyl-17-((R)-6-methylheptan-2-yl)-7,8,9,11,12,13,14,15,16,17-decahydro-1H-cyclopenta[a]phenanthren-3(2H,6H,10H)-ylidene)methanamine oxide] as the molecule, how does the “Neuroprotection (%)” value ([1]; 0.1 μM, OGD conditions) read?
Answer: 9.6 ± 0.5%

Question: What about the “Neuroprotection (%)” value ([1]; 0.5 μM, OGD conditions) of the same molecule?
Answer: 49.3 ± 3.6%

Question: And the “Neuroprotection (%)” value ([1]; 1.0 μM, OGD conditions)?
Answer: 54.3 ± 1.3 %

Question: And the “neuronal viability (versus 100% control)” value ([1]; 1 μM)?
Answer: 89.1%

Question: What about the “neuroprotection compared with citicoline” value ([1]; 5 μM, OGD conditions) of the same molecule?
Answer: significantly higher neuroprotection than that observed for citicoline

Question: And the “Neuroprotection (%)” value ([1]; 5.0 μM, OGD conditions)?
Answer: 80.7 ± 2.7 %

Question: And the “neuronal viability (versus 100% control)” value ([1]; 5 μM)?
Answer: 95.5%

Question: And the “Neuroprotection (%)” value ([1]; 10 μM, OGD conditions)?
Answer: 47.2 ± 1.4%

Question: What about the “Neuroprotection (%)” value ([1]; 50 μM, OGD conditions) of the same molecule?
Answer: <0%

Question: What about the “Neuroprotection (%)” value ([1]; 100 μM, OGD conditions) of the same molecule?
Answer: <0%

Question: What about the “neuronal viability in R5d experiment (versus 100% control)” value ([2]; 1 μM, added after 48 h of reperfusion) of the same molecule?
Answer: 95.7%

Question: What about the “neuronal viability in R5d experiment (versus 100% control)” value [2, 5] of the same molecule?
Answer: 110.6%

Question: And the “neuronal viability in R5d experiment (versus 100% control)” value [2, 6]?
Answer: 118.2%

Question: And the “neuronal death, Fluoro-Jade B” value ([3]; CA1 region, saline/carrier 70.4±2.4)?
Answer: 55.1±3.4 cells per field

Question: And the “neuronal death, Fluoro-Jade B” value ([3]; cerebral cortex, carrier 6.7±3.5)?
Answer: 0±0.1 cells per field

Question: What about the “neuronal death, Fluoro-Jade B” value ([3]; lateral cortex, carrier 13.4±3.6) of the same molecule?
Answer: 6.3±2.2

Question: And the “neuronal apoptotic death, TUNEL-positive” value ([4]; CA1 area, carrier 64.1±7.1)?
Answer: 48.5±0.4 nuclei per field

Question: And the “neuronal apoptotic death, TUNEL-positive” value ([4]; cerebral cortex, carrier 7.2±3.8)?
Answer: 1±0.5 nuclei per field

Question: What about the “neuronal apoptotic death, TUNEL-positive” value ([4]; lateral cortex, carrier 13.3±6.2) of the same molecule?
Answer: 4.3±1.4

Question: How did the “Neuroprotection (%)” value ([1]; 0.5 μM, OGD conditions) turn out when CC(C)CCC[C@@H](C)[C@H]1CC[C@H]2[C@@H]3CCC4=C/C(=[N+](/C)[O-])CC[C@]4(C)[C@H]3CC[C@]12C [cholesteronitrone F3, (Z)—N-((8S,9S,10R,13R,14S,17R)-10,13-dimethyl-17-((R)-6-methylheptan-2-yl)-7,8,9,11,12,13,14,15,16,17-decahydro-1H-cyclopenta[a]phenanthren-3(2H,6H,10H)-ylidene)methanamine oxide] was run?
Answer: <0%

Question: And the “Neuroprotection (%)” value ([1]; 1.0 μM, OGD conditions)?
Answer: 18.8 ± 1.1%

Question: And the “Neuroprotection (%)” value ([1]; 5.0 μM, OGD conditions)?
Answer: 21.7 ± 1.2%

Question: And the “Neuroprotection (%)” value ([1]; 10 μM, OGD conditions)?
Answer: 0.8 ± 0.07%

Question: What about the “significant increase of neuronal viability during reperfusion” value ([1]; 1 or 5 μM, compared with R24h) of the same molecule?
Answer: not

Question: And the “neuronal viability in R5d experiment (versus 100% control)” value [2, 5]?
Answer: 105.6%

Question: What about the “neuronal viability in R5d experiment (versus 100% control)” value ([2]; 5 μM, added after 48 h of reperfusion) of the same molecule?
Answer: 97.8%

Question: And the “neuronal viability in R5d experiment (versus 100% control)” value [2, 6]?
Answer: 118.6%

Question: Which results are given for C[N+](C)(C)CCOP(=O)(O)OP(=O)([O-])OC[C@H]1O[C@@H](n2ccc(N)nc2=O)[C@H](O)[C@@H]1O [citicoline, reference compound]?
Answer: neuronal viability (versus 100% control) ([1]; 10 μM): 87.4%; Neuroprotection (%) ([1]; 100 μM, OGD conditions): 50.2 ± 1.26%; neuronal viability (versus 100% control) ([1]; 100 μM): 88.1%; neuronal viability in R5d experiment (versus 100% control) ([2]; 100 μM, added after 48 h of reperfusion): 74.6%; neuronal viability in R5d experiment (versus 100% control) ([2]; 100 μM, added at the beginning of reperfusion): 76.0%
